# Measured values as given in patent US20180256611A1, “BISPHOSPHONATES FOR INCREASING THE TYPE 2 CHARACTER OF A MODIC CHANGE” (ANTECIP BIOVENTURES II LLC, priority 2017, published 2018).
# Tested on: patients with chronic low back pain (LBP) and Modic changes on MRI
# Experiment: Double-blinded, randomized, placebo-controlled clinical trial of a single intravenous infusion of 5 mg zoledronic acid
# Format: in vivo, human
# Details: for Intensity of leg pain, mean (SD) original value / Intensity of LBP, mean (SD) original value / Intensity of LBP, mean (SD) change: 10-cm VAS; for Fingers-to-floor, between-group difference, adjusted (ANCOVA) / Fingers-to-floor, between-group difference, unadjusted / Intensity of LBP, between-group difference, adjusted analysis (ANCOVA, baseline value) / Intensity of LBP, between-group difference, unadjusted analysis / Intensity of leg pain, between-group difference, adjusted (ANCOVA) / Intensity of leg pain, between-group difference, unadjusted / Oswestry disability index, between-group difference, adjusted (ANCOVA) / Oswestry disability index, between-group difference, unadjusted / RAND-36 mental component, between-group difference (95% CI), adjusted (ANCOVA) / RAND-36 mental component, between-group difference (95% CI), unadjusted / RAND-36 physical component, between-group difference (95% CI), adjusted (ANCOVA) / RAND-36 physical component, between-group difference (95% CI), unadjusted / Sidebending to left, between-group difference, adjusted (ANCOVA) / Sidebending to left, between-group difference, unadjusted / Sidebending to right, between-group difference, adjusted (ANCOVA) / Sidebending to right, between-group difference, unadjusted / Total RAND-36, between-group difference (95% CI), adjusted (ANCOVA) / Total RAND-36, between-group difference (95% CI), unadjusted: ZA vs placebo
# Protocol: A study was performed to evaluate the efficacy of a single intravenous infusion of 5 mg zoledronic acid in comparison with intravenous placebo infusion among patients with chronic low back pain (LBP) and Modic changes on MRI. This study was a double-blinded, randomized, placebo-controlled clinical trial in patients with low back pain (LBP).
# Patients were excluded from the study if they had renal impairment with reduced creatinine clearance defined as an estimated glomerular filtration rate (eGFR) below 40 ml/min, hypocalcemia, known hypersensitivity to zoledronic acid or other bisphosphonates or ingredients of the infusion product, the presence of red flags, nerve root entrapment or willingness for early retirement. Premenopausal women of childbearing potential were also excluded. Blood samples were taken prior to the infusion to assess the serum concentration of calcium and creatinine. The clinical examination included medical history and clinical assessment of lumbar flexibility, tendon signs, and motor and sensory testing.
# After confirmation of eligibility patients were randomized to receive a single intravenous infusion of 5 mg zoledronic acid (n=20) or 100 ml saline as placebo (n=20) over a 15-minute period. Information on use of the concomitant medication and hospital admissions were recorded. Blood samples were taken for the assessment of safety, inflammatory mediators and markers of bone turnover at baseline, at one month and at one year.
# Clinical assessments were performed at 14 days before enrollment (screening visit), and at follow-up visits at one month and one year after the infusion. The primary outcome was the change in the intensity of LBP on VAS. Secondary outcomes included leg pain intensity, ODI, health-related quality of life assessed with RAND-36, patient-reported sick leaves and lumbar flexibility. These outcome measures were assessed at baseline and at each follow-up. Lumbar flexibility was evaluated using the fingers-to-floor and trunk side bending measures (in cm). The percentage of patients undergoing a 20% relative improvement, the proportion of patients reaching a VAS score of 40 mm or less using 100 mm scale in the primary outcome, and patient acceptable symptom state (PASS) were also assessed. Pain medication use was inquired about during the follow-up visits.
compound,measurement,setting,value
"O=P(O)(O)C(O)(Cn1ccnc1)P(=O)(O)O [ZA, zoledronic acid]","Fingers-to-floor, mean (SD) original value",1 mo.,17 (17) cm
same,"Oswestry disability index, mean (SD) original value",1 mo.,24 (10) %
same,"RAND-36 mental component, mean (SD) original value",1 mo.,50 (9)
same,"RAND-36 physical component, mean (SD) original value",1 mo.,52 (9)
same,"Sidebending to left, mean (SD) original value",1 mo.,16.1 (5.3) cm
same,"Sidebending to right, mean (SD) original value",1 mo.,15.7 (5.9) cm
same,"Total RAND-36, mean (SD) original value",1 mo.,51 (8)
same,"Intensity of leg pain, mean (SD) original value",1 mo.,2.0 (2.3)
same,"Intensity of LBP, mean (SD) original value",1 mo. after 5 mg IV,4.3 (2.3)
same,"Intensity of leg pain, mean (SD) original value",12 mos.,2.1 (2.8)
same,"Intensity of LBP, mean (SD) original value",12 mos. after 5 mg IV,3.8 (2.5)
same,"Intensity of leg pain, mean (SD) original value",baseline,3.0 (3.1)
same,"Intensity of LBP, mean (SD) change",baseline to 1 mo.,−2.2 (2.7)
same,"Intensity of LBP, mean (SD) change",baseline to 12 mos.,−2.8 (2.9)
same,"Intensity of LBP, mean (SD) original value","baseline, n=20",6.6 (1.4)
same,"Fingers-to-floor, mean (SD) original value",12 mos.,16 (16) cm
same,"Oswestry disability index, mean (SD) original value",12 mos.,25 (13) %
same,"RAND-36 mental component, mean (SD) original value",12 mos.,51 (9)
same,"RAND-36 physical component, mean (SD) original value",12 mos.,52 (8)
same,"Sidebending to left, mean (SD) original value",12 mos.,16.2 (6.7) cm
same,"Sidebending to right, mean (SD) original value",12 mos.,15.7 (5.6) cm
same,"Total RAND-36, mean (SD) original value",12 mos.,51 (8)
same,"Fingers-to-floor, between-group difference, adjusted (ANCOVA)",1 mo.,3.6 cm
same,"Fingers-to-floor, between-group difference, unadjusted",1 mo.,5.0 cm
same,"Intensity of LBP, between-group difference, adjusted analysis (ANCOVA, baseline value)",1 mo.,1.4
same,"Intensity of LBP, between-group difference, unadjusted analysis",1 mo.,1.3
same,"Intensity of leg pain, between-group difference, adjusted (ANCOVA)",1 mo.,0.8
same,"Intensity of leg pain, between-group difference, unadjusted",1 mo.,0.8
same,"Oswestry disability index, between-group difference, adjusted (ANCOVA)",1 mo.,6.0%
same,"Oswestry disability index, between-group difference, unadjusted",1 mo.,4.3%
same,"RAND-36 mental component, between-group difference (95% CI), adjusted (ANCOVA)",1 mo.,1.6 (−2 to 5)
same,"RAND-36 mental component, between-group difference (95% CI), unadjusted",1 mo.,2.0 (−2 to 6)
same,"RAND-36 physical component, between-group difference (95% CI), adjusted (ANCOVA)",1 mo.,1.3 (−3 to 6)
same,"RAND-36 physical component, between-group difference (95% CI), unadjusted",1 mo.,0.3 (−4 to 5)
same,"Sidebending to left, between-group difference, adjusted (ANCOVA)",1 mo.,−1.7 cm
same,"Sidebending to left, between-group difference, unadjusted",1 mo.,−1.5 cm
same,"Sidebending to right, between-group difference, adjusted (ANCOVA)",1 mo.,−2.0 cm
same,"Sidebending to right, between-group difference, unadjusted",1 mo.,−2.0 cm
same,"Total RAND-36, between-group difference (95% CI), adjusted (ANCOVA)",1 mo.,1.3 (−3 to 5)
same,"Total RAND-36, between-group difference (95% CI), unadjusted",1 mo.,1.2 (−3 to 5)
same,"Fingers-to-floor, between-group difference, adjusted (ANCOVA)",12 mos.,5.3 cm
same,"Fingers-to-floor, between-group difference, unadjusted",12 mos.,7.1 cm
same,"Intensity of LBP, between-group difference, adjusted analysis (ANCOVA, baseline value)",12 mos.,0.7
same,"Intensity of LBP, between-group difference, unadjusted analysis",12 mos.,0.6
same,"Intensity of leg pain, between-group difference, adjusted (ANCOVA)",12 mos.,0.5
same,"Intensity of leg pain, between-group difference, unadjusted",12 mos.,0.6
same,"Oswestry disability index, between-group difference, adjusted (ANCOVA)",12 mos.,5.1%
same,"Oswestry disability index, between-group difference, unadjusted",12 mos.,3.1%
same,"RAND-36 mental component, between-group difference (95% CI), adjusted (ANCOVA)",12 mos.,2.7 (−2 to 7)
same,"RAND-36 mental component, between-group difference (95% CI), unadjusted",12 mos.,3.5 (−2 to 9)
same,"RAND-36 physical component, between-group difference (95% CI), adjusted (ANCOVA)",12 mos.,2.1 (−3 to 7)
same,"RAND-36 physical component, between-group difference (95% CI), unadjusted",12 mos.,0.7 (−5 to 6)
same,"Sidebending to left, between-group difference, adjusted (ANCOVA)",12 mos.,−1.0 cm
same,"Sidebending to left, between-group difference, unadjusted",12 mos.,−0.7 cm
same,"Sidebending to right, between-group difference, adjusted (ANCOVA)",12 mos.,−1.7 cm
same,"Sidebending to right, between-group difference, unadjusted",12 mos.,−1.6 cm
same,"Total RAND-36, between-group difference (95% CI), adjusted (ANCOVA)",12 mos.,2.2 (−2 to 7)
same,"Total RAND-36, between-group difference (95% CI), unadjusted",12 mos.,2.1 (−3 to 7)
same,Patients using NSAIDs (self-reported),"at one year, placebo 60%",20%
same,"Fingers-to-floor, mean (SD) original value",baseline,23 (19) cm
same,"Oswestry disability index, mean (SD) original value",baseline,30 (11) %
same,"RAND-36 mental component, mean (SD) original value",baseline,49 (9)
same,"RAND-36 physical component, mean (SD) original value",baseline,52 (8)
same,"Sidebending to left, mean (SD) original value",baseline,15.0 (5.4) cm
same,"Sidebending to right, mean (SD) original value",baseline,14.1 (4.9) cm
same,"Total RAND-36, mean (SD) original value",baseline,50 (8)
same,"Fingers-to-floor, mean (SD) change",baseline to 1 mo.,−5.1 (20) cm
same,"Intensity of leg pain, mean (SD) change",baseline to 1 mo.,−0.6 (2.4)
same,"Oswestry disability index, mean (SD) change",baseline to 1 mo.,−5.9 (11) %
same,"RAND-36 mental component, mean change",baseline to 1 mo.,1.0
same,"RAND-36 physical component, mean change",baseline to 1 mo.,0.1
same,"Sidebending to left, mean (SD) change",baseline to 1 mo.,1.1 (3.0) cm
same,"Sidebending to right, mean (SD) change",baseline to 1 mo.,1.5 (4.7) cm
same,"Total RAND-36, mean change",baseline to 1 mo.,0.6
same,"Fingers-to-floor, mean (SD) change",baseline to 12 mos.,−6.3 (23) cm
same,"Intensity of leg pain, mean (SD) change",baseline to 12 mos.,−0.9 (3.4)
same,"Oswestry disability index, mean (SD) change",baseline to 12 mos.,−5.0 (15) %
same,"RAND-36 mental component, mean change",baseline to 12 mos.,1.8
same,"RAND-36 physical component, mean change",baseline to 12 mos.,0.3
same,"Sidebending to left, mean (SD) change",baseline to 12 mos.,1.2 (5.3) cm
same,"Sidebending to right, mean (SD) change",baseline to 12 mos.,1.6 (4.8) cm
same,"Total RAND-36, mean change",baseline to 12 mos.,1.0
same,Proportion of patients reaching patient acceptable symptom state (PASS),"one month, placebo 20% (p=0.096)",50%
same,Proportion of patients with at least 20% improvement in intensity of LBP,"one month, placebo 25% (p=0.105)",55%
same,"Pain reduction, VAS change from baseline",patients with Baseline VAS <6,−0.1 cm
same,"Pain reduction, VAS change from baseline",patients with Baseline VAS ≥6 and <7,−2.3 cm
same,"Pain reduction, VAS change from baseline",patients with Baseline VAS ≥7,−3.4 cm
same,Mean reduction in pain from baseline,patients with baseline pain intensity <6,0.1
same,Mean reduction in pain from baseline,patients with baseline pain intensity ≥7,3.4
